Source: patent publication US12370202B2, “Methods and compositions for inhibiting the NLRP3 inflammasome and/or LON protease” (TRITERPENOID THERAPEUTICS, INC., priority 2019, dated 2025)

Assays:
NLRP3 = assay: Mono-sodium urate (MSU)-induced peritonitis; format: in vivo, Mice; conditions: MSU crystals 1 mg/mouse i.p.; lavage four to sixteen hours later
Experimental: FIG. 7 is a bar graph. CDDO-Im, CDDO-2P-Im, and CDDO-3P-Im inhibit mono-sodium urate (MSU)-induced peritonitis. Peritoneal cavity IL-1β levels expressed as mean and SEM (n=6).
Mice received intraperitoneal (i.p.) injections of mono-sodium urate (MSU) crystals (1 mg/mouse) in the presence or absence of CDDO-Im, CDDO-2P-Im, or CDDO-3P-Im. Due to its particulate material, MSU crystals are potent activators of the NOD-like receptor NLRP3. Four to sixteen hours later a peritoneal lavage was conducted to collect supernatant from the peritoneal cavity.

LN227 = assay: GBM cell growth (confluence), IncuCyte; format: cell-based, human; conditions: nanomolar concentrations
Experimental: (§1) FIG. 8 is a set of line graphs. CDDO-2P-Im suppresses growth of TMZ-resistant human GBM cells in vitro. […] Reduction in confluence is accompanied by the detachment and death of GBM cells. The data reveal that the relatively TMZ-resistant U-87MG is equivalent to LN227 in its sensitivity to CDDO-2P-Im.
(§2) To define the capacity of CDDO-2P-IM to suppress the growth and viability of GBM, several well-characterized human GBM cell lines (U251, U-87MG, LN227, Gli36Δ5), primary cultures of patient-derived GBM cells (UVM04, D028), and normal human astrocytes (provided by Dr. Arti Gaur, Dartmouth College) were utilized.
(§3) The activity of CDDO-2P-IM in cultures of human GBM was assessed and similar nanomolar (nM) potency was observed. […] These changes in confluence observed by Incucyte® corresponded with a reduction in cell viability. Doses of CDDO-2P-IM that result in complete cell death of the LN227, U251 and U-87MG cell lines had no effect on the viability of primary human astrocytes in vitro (not shown).

U-87MG = assay: GBM cell growth (confluence), IncuCyte; format: cell-based, human
Experimental: as §1, §2, §3

U251 = assay: GBM cell growth (confluence), IncuCyte; format: cell-based, human; conditions: not shown
Experimental: as §2, §3

[1] = test system: primary cultures of patient-derived GBM cells; assay: Cell viability in primary cultures of human GBM; format: cell-based
Experimental: as §2, §3

primary human astrocytes = assay: Viability of primary human astrocytes; format: cell-based; conditions: doses that result in complete cell death of LN227, U251 and U-87MG; not shown
Experimental: as §2, §3

CCL2 = CCL2 expression in LPS-stimulated human macrophages, RT-qPCR; format: cell-based; conditions: 500 pM, 16 hours pretreatment, then 10 ng/ml LPS 24 hours
Experimental: FIG. 10 is a bar graph. CDDO-Me, CDDO-Im, CDDO-2P-Im, and CDDO-3P-Im inhibit expression of CCL2 in human macrophages at picomolar concentrations.
Human peripheral blood monocytes were isolated using CD14 magnetic beads and differentiated with 20 ng/ml M-CSF for with 5 days and pretreated or not with 300 nM CDDO-Me; 500 pM CDDO-Im; 500 pM CDDO-2p-Im; 500 pM CDDO-3p-Im for 16 hours, followed by stimulation with 10 ng/ml LPS for an additional 24 hours. Total RNA was extracted and analyzed by RT-qPCR (Tagman) for cytokine expression.

With `CC1(C)CC[C@]2(C(=O)n3cnc(-c4ccccn4)c3)CC[C@]3(C)[C@H](C(=O)C=C4[C@@]5(C)C=C(C#N)C(=O)C(C)(C)[C@@H]5CC[C@]43C)[C@@H]2C1` [CDDO-2P-Im, 1-[2-Cyano-3,12-dioxooleana-1,9(11)-dien-28-oyl]-4(-pyridin-2-yl)-1H-imidazole] the “MSU-induced peritonitis (peritoneal cavity IL-1β levels)” value (NLRP3) was “inhibit”, the “confluence (growth)” value (LN227) was “dose-dependent reduction” and the “confluence (growth)” value (U-87MG; nanomolar concentrations) was “dose-dependent reduction”. For the same compound, the “GBM cell kill, combination with TMZ” value (U-87MG; suboptimal dose of CDDO-2P-Im combined with TMZ, significance at 0.005 or greater) was “significant gain”, the “confluence (growth)” value (U251) was “dose-dependent reduction” and the “concentrations at which a significant reduction in cell viability was observed” value [1] was “below 100 nM”. The viability (primary human astrocytes) was “no effect” and the “expression of CCL2” value (CCL2) was “inhibit”.
